The values that follow are results of earlier work, collected in patent publication US20210393628A1, “COMPOSITIONS AND METHODS FOR MODULATING T CELL EXHAUSTION” (The Board of Trustees of the Leland Stanford Junior …, priority 2018, published 2021).

The test system of the series is tonically signaling CAR T cells. The conditions noted are these: expanded in the presence of dasatinib.

In the case of `Cc1nc(Nc2ncc(C(=O)Nc3c(C)cccc3Cl)s2)cc(N2CCN(CCO)CC2)n1` [dasatinib], the cytotoxicity entry is “augmented”.
